Structures are written as SMILES.

In the first test the target is T1, human KV 1.5 (IKur) (Homo sapiens, UniProt P22460).
T1 construct: expressed in transfected cells
T1 sequence (P22460 whole entry): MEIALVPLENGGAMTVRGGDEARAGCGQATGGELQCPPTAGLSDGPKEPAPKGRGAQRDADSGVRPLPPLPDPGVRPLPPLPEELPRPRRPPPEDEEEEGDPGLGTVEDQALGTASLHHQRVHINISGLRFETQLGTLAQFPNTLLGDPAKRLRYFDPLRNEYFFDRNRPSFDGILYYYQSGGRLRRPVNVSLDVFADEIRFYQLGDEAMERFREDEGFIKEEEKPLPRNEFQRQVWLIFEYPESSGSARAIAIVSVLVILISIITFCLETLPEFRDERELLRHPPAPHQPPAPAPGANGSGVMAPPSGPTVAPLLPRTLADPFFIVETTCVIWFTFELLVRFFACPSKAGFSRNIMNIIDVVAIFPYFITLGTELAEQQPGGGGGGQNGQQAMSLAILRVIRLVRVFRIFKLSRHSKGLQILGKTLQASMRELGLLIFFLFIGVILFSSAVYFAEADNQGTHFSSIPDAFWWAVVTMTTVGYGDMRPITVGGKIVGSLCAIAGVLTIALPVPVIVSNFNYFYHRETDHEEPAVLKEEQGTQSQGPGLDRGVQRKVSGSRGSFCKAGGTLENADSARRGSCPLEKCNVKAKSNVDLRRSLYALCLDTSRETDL
Put plainly: block of IKur current in patch clamped L-929 cells expressing human Kv1.5. The test is classed as cell-based. To be noted: 0.3 μM; patch clamped mammalian L-929 cells stably expressing human Kv1.5. For orientation: Patch clamp records ionic current or voltage across a cell membrane.
Turning to `NS(=O)(=O)c1cncc(-c2nc(NC(CO)c3ccccn3)c3c(-c4ccccc4)ccn3n2)c1` (stereo not shown) [Example 33, 5-(4-((2-Hydroxy-1-(pyridin-2-yl)ethyl)amino)-5-phenylpyrrolo[2,1-f][1,2,4]triazin-2-yl)pyridine-3-sulfonamide], the “KV1_5% Inh L929 @0.3 μM” value was 95.01%.

The test is the same for the next values; noted with them: L929, 0.3 μM; patch clamped mammalian L-929 cells stably expressing human Kv1.5; read-out: KV1_5% Inh L929 @0.3 μM.
`NS(=O)(=O)c1cncc(-c2nc(N3Cc4ccccc4C3)c3c(-c4ccccc4)ccn3n2)c1` [Example 143, 5-(4-(isoindolin-2-yl)-5-phenylpyrrolo [2,1-f][1,2,4]triazin-2-yl)pyridine-3-sulfonamide]: the inhibition at 0.3 µM was determined as 93.8%.
On the same count and under the same terms, to `CC(Nc1nc(-c2cncc(S(N)(=O)=O)c2)nn2ccc(-c3ccccc3)c12)c1ccc(F)cc1` (stereo not shown) [Example 76, 5-(4-(1-(4-fluorophenyl)ethylamino)-5-phenylpyrrolo[1,2-f] [1,2,4]triazin-2-yl) pyridine-3-sulfonamide] belongs 93.8%; to `NC(=O)Nc1cncc(-c2nc(NCc3ccccn3)c3c(-c4ccccc4)ccn3n2)c1` [Example 25, 1-(5-(5-Phenyl-4-(pyridin-2-ylmethylamino)pyrrolo[1,2-f][1,2,4]triazin-2-yl)pyridin-3-yl)urea], 96.8%; to `CCS(=O)(=O)Nc1cncc(-c2nc(NCc3ccccn3)c3c(-c4ccccc4)ccn3n2)c1` [Example 62, N-(5-(5-phenyl-4-(pyridin-2-ylmethylamino)pyrrolo[1,2-f][1,2,4]triazin-2-yl)pyridin-3-yl)ethanesulfonamide], 97.9%.
For `NC(=O)c1ccc(-c2nc(NCc3ccccn3)c3c(-c4ccccc4)ccn3n2)cc1` [Example 112, 4-(5-phenyl-4-(pyridin-2-ylmethylamino)pyrrolo[1,2-f][1,2,4]triazin-2-yl)benzamide], the inhibition at 0.3 µM was found to be 99%.
Still for that read-out and setting: to `NS(=O)(=O)c1cncc(-c2nc(NCc3cnccn3)c3c(-c4ccccc4)ccn3n2)n1` [Example 154, 6-(5-phenyl-4-((pyrazin-2-ylmethyl)amino)pyrrolo [2,1-f][1,2,4]triazin-2-yl)pyrazine-2-sulfonamide] belongs 89.5%; to `N#Cc1ccccc1CNc1nc(-c2cncc(S(N)(=O)=O)c2)nn2ccc(-c3ccccc3)c12` [Example 168, 5-(4-((2-cyanobenzyl)amino)-5-phenylpyrrolo [2,1-f][1,2,4]triazin-2-yl)pyridine-3-sulfonamide], 86.8%.
Still for that read-out and setting: next, `NS(=O)(=O)c1cncc(-c2nc(NCCN3CCOCC3)c3c(-c4ccccc4)ccn3n2)c1` [Example 155, 5-(4-((2-morpholinoethyl)amino)-5-phenylpyrrolo [2,1-f][1,2,4]triazin-2-yl)pyridine-3-sulfonamide]: 30.2%; `CC(=O)Nc1ccccc1CNc1nc(-c2cncc(S(N)(=O)=O)c2)nn2ccc(-c3ccccc3)c12` [Example 180, N-(2-(((5-phenyl-2-(5-sulfamoylpyridin-3-yl)pyrrolo[2,1-f][1,2,4]triazin-4-yl)amino)methyl)phenyl)acetamide]: 36.9%.
Turning to `O=C(NCC(O)CO)c1cncc(-c2nc(NCc3ccccc3)c3c(-c4ccccc4)ccn3n2)c1` (stereo not shown) [Example 96, 5-(4-(benzylamino)-5-phenylpyrrolo [1,2-f][1,2,4]triazin-2-yl)-N-(2,3-dihydroxypropyl) nicotinamide], the inhibition at 0.3 µM was determined as 95.7%.
Still for that read-out and setting: to `CS(=O)(=O)NC1(c2nc(NCc3ccccn3)c3c(-c4ccccc4)ccn3n2)CC1` [Example 37, N-(1-(5-Phenyl-4-(pyridin-2-ylmethylamino)pyrrolo[1,2-f][1,2,4]triazin-2-yl)cyclopropyl)methanesulfonamide] belongs 98.6%; to `NC(=O)c1ccccc1CNc1nc(-c2cncc(S(N)(=O)=O)c2)nn2ccc(-c3ccccc3)c12` [Example 169, 2-(((5-phenyl-2-(5-sulfamoylpyridin-3-yl)pyrrolo[2,1-f][1,2,4]triazin-4-yl)amino)methyl) benzamide], 62.2%.
Still for that read-out and setting: to `NC(=O)CNS(=O)(=O)c1cncc(-c2nc(NCc3ccccn3)c3c(-c4ccccc4)ccn3n2)c1` [Example 28, 2-(5-(5-Phenyl-4-(pyridin-2-ylmethylamino)pyrrolo[1,2-f][1,2,4]triazin-2-yl)pyridine-3-sulfonamido)acetamide] belongs 97.5%.
Same read-out and setting: to `COc1ncc(-c2nc(NCc3ccccn3)c3c(-c4ccccc4)ccn3n2)cc1S(N)(=O)=O` [Example 147, 2-methoxy-5-(5-phenyl-4-(pyridin-2-ylmethylamino)pyrrolo[1,2-f][1,2,4]triazin-2-yl)pyridine-3-sulfonamide] belongs 97.3%.
Consider `NS(=O)(=O)c1cncc(-c2nc(NCc3nc4ccccc4s3)c3c(-c4ccccc4)ccn3n2)c1` [Example 172, 5-(4-((benzo[d]thiazol-2-ylmethyl)amino)-5-phenylpyrrolo [2,1-f][1,2,4]triazin-2-yl)pyridine-3-sulfonamide], for which the inhibition at 0.3 µM is 84.3%.
Take `NC(=O)CS(=O)(=O)Nc1cncc(-c2nc(NCc3ccccn3)c3c(-c4ccccc4)ccn3n2)c1` [Example 55, 2-(N-(5-(5-phenyl-4-(pyridin-2-ylmethylamino)pyrrolo[1,2-f][1,2,4]triazin-2-yl)pyridin-3-yl)sulfamoyl)acetamide]: the inhibition at 0.3 µM amounted to 20.6%.
The same measure, in the same setting: to `Cc1csc(CNc2nc(-c3cncc(S(N)(=O)=O)c3)nn3ccc(-c4ccccc4)c23)n1` [Example 174, 5-(4-(((4-methylthiazol-2-yl)methyl)amino)-5-phenylpyrrolo [2,1-f][1,2,4]triazin-2-yl)pyridine-3-sulfonamide] belongs 97.2%; to `CS(=O)(=O)Nc1cncc(-c2nc(NCc3ccccn3)c3c(-c4ccc(F)cc4)ccn3n2)c1` [Example 110, N-(5-(5-(4-fluorophenyl)-4-(pyridin-2-ylmethylamino)pyrrolo[1,2-f] [1,2,4]triazin-2-yl)pyridin-3-yl) methanesulfonamide], 81.4%.
Same read-out and setting: next, `O=C(O)c1cncc(-c2nc(NCc3ccccc3)c3c(-c4ccccc4)ccn3n2)c1` [Example 12, 5-(4-(Benzylamino)-5-phenylpyrrolo[1,2-f][1,2,4]triazin-2-yl)nicotinic acid]: 88.2%; `COc1ccc(-c2ccn3nc(-c4cncc(N)c4)nc(NCc4ccccn4)c23)cn1` [Example 70, 2-(5-aminopyridin-3-yl)-5-(6-methoxypyridin-3-yl)-N-(pyridin-2-ylmethyl) pyrrolo[1,2-f][1,2,4] triazin-4-amine]: 85.4%; `NS(=O)(=O)c1cncc(-c2nc(NCc3ncccn3)c3c(-c4ccccc4)ccn3n2)c1` [Example 152, 5-(5-phenyl-4-((pyrimidin-2-ylmethyl)amino)pyrrolo[2,1-f][1,2,4]triazin-2-yl)pyridine-3-sulfonamide]: 97.3%.
The same measure, in the same setting: next, `O=C(Nc1ccncn1)c1nc(NCc2ccccc2)c2c(-c3ccccc3)ccn2n1` [Example 124, 4-(benzylamino)-5-phenyl-N-(pyrimidin-4-yl)pyrrolo[1,2-f][1,2,4] triazinc-2-carboxamide]: 86.4%; `NC(=O)c1cncc(-c2nc(NCc3ccccc3)c3c(-c4ccccc4)ccn3n2)c1` [Example 13, 5-(4-(Benzylamino)-5-phenylpyrrolo[1,2-f][1,2,4]triazin-2-yl)nicotinamide]: 95.9%.
For `NS(=O)(=O)c1nc(-c2nc(NCc3ccccn3)c3c(-c4ccccc4)ccn3n2)cs1` [Example 5, 4-(5-Phenyl-4-(pyridin-2-ylmethylamino)pyrrolo[1,2-f][1,2,4]triazin-2-yl)thiazole-2-sulfonamide], the inhibition at 0.3 µM is 98.5%.
In the case of `N#Cc1cncc(-c2nc(NC(c3ccccc3)C(F)(F)F)c3c(-c4ccccc4)ccn3n2)c1` (stereo not shown) [Example 88, 5-(5-phenyl-4-(-2-,2,2-trifluoro-1-phenylethylamino)pyrrolo [1,2-f][1,2,4]triazin-2-yl)nicotinonitrile], the inhibition at 0.3 µM was 27.2%.
As for `O=C(NC1(CO)CCCC1)c1nc(NCc2ccccc2)c2c(-c3ccccc3)ccn2n1` [Example 118, 4-(benzylamino)-N-(1-(hydroxymethyl)cyclopentyl)-5-phenylpyrrolo [1,2-f][1,2,4] triazine-2-carboxamide], the inhibition at 0.3 µM came out at 45%.
On to `Oc1ccc(-c2nc(NCc3ccccn3)c3c(-c4ccccc4)ccn3n2)cn1` [Example 151, 5-(5-phenyl-4-((pyridin-2-ylmethyl)amino)pyrrolo [2,1-f][1,2,4]triazin-2-yl)pyridin-2-ol], for which the inhibition at 0.3 µM was 94.2%.
Consider `NS(=O)(=O)c1ccc(-c2nc(NCc3ccccn3)c3c(-c4ccccc4)ccn3n2)cn1` [Example 183, 5-(5-phenyl-4-((pyridin-2-ylmethyl)amino)pyrrolo[2,1-f][1,2,4]triazin-2-yl)pyridine-2-sulfonamide], for which the inhibition at 0.3 µM was found to be 97.8%.
On the same count and under the same terms, next, `N#Cc1ccc(-c2nc(NCc3ccccc3)c3c(-c4ccccc4)ccn3n2)cn1` [Example 80, 5-(4-(-benzylamino)-5-phenylpyrrolo [1,2-f][1,2,4]triazin-2-yl) picolinonitrile]: 96.9%; `N#Cc1ccc(-c2nc(NCc3ccccn3)c3c(-c4ccccc4)ccn3n2)cc1` [Example 67, 4-(5-phenyl-4-(pyridin-2-ylmethylamino)pyrrolo [1,2-f][1,2,4]triazin-2-yl)benzonitrile]: 97.8%.
On the same count and under the same terms, next, `NS(=O)(=O)c1cncc(-c2nc(NC(CO)c3ccccn3)c3c(-c4ccccc4)ccn3n2)c1` (stereo not shown) [Example 33, 5-(4-((2-Hydroxy-1-(pyridin-2-yl)ethyl)amino)-5-phenylpyrrolo[2,1-f][1,2,4]triazin-2-yl)pyridine-3-sulfonamide]: 87.8%.
`N#Cc1cccc(F)c1CNc1nc(-c2cncc(S(N)(=O)=O)c2)nn2ccc(-c3ccccc3)c12` [Example 141, 5-(4-((2-cyano-6-fluorobenzyl)amino)-5-phenylpyrrolo [2,1-f][1,2,4]triazin-2-yl)pyridine-3-sulfonamide]: the inhibition at 0.3 µM turned out to be 87.7%.
On to `Oc1cc(-c2nc(NCc3ccccn3)c3c(-c4ccccc4)ccn3n2)ccn1` [Example 157, 4-(5-phenyl-4-((pyridin-2-ylmethyl)amino)pyrrolo [2,1-f][1,2,4]triazin-2-yl)pyridin-2-ol], for which the inhibition at 0.3 µM was 94.5%.

Values taken from patent US9050345B2, “Pyrrolotriazines as potassium ion channel inhibitors” (BRISTOL-MYERS SQUIBB COMPANY, priority 2013, dated 2015).
